# According to US10550142B2, “Quercetin-based compound” (AMOREPACIFIC CORPORATION, priority 2016, dated 2020):
# Target: T1, β-amyloid (Aβ1-42) (Homo sapiens, UniProt P05067)
# T1 construct: β-amyloid (Aβ1-42, AnaSpec Inc, USA) was obtained; purchased AnaSpec Inc, USA
# Test: Beta-amyloid aggregation inhibition, fluorescence analysis (Thioflavin T assay)
# Format: biochemical
# Details: compound 10 μM; for Increased RFU (% of Pos.Cont.): aggregated β-amyloid compared to the positive control (no compound) = 100; for decreased aggregation compared with the positive control: positive control taken as 100%
# Description: The beta-amyloid aggregation inhibitory effect of quercetin 3-O-[3-O″-(E)-p-coumaroyl][β-D-glucopyranosyl-(1→3)-O-α-L-rhamnopyranosyl-(1→6)-O-β-D-glucopyranoside] and quercetin 3-O-[3-O″-(E)-p-coumaroyl][α-L-rhamnopyranosyl-(1→6)-O-β-D-glucopyranoside] was determined by fluorescence analysis (Thioflavin T assay). Specifically, β-amyloid (Aβ1-42, AnaSpec Inc, USA) was obtained and used at a concentration of 0.1 mg/ml. It was stored at −80° C. prior to use. Each of morin (20 μM), phenol red (20 μM), quercetin 3-O-[3-O″-(E)-p-coumaroyl][β-D-glucopyranosyl-(1→3)-O-α-L-rhamnopyranosyl-(1→6)-O-β-D-glucopyranoside] (1 mg/ml), and quercetin 3-O-[3-O″-(E)-p-coumaroyl][α-L-rhamnopyranosyl-(1→6)-O-β-D-glucopyranoside] (1 mg/ml) was diluted to these concentrations in DMSO. In order to determine the degree of inhibition of Aβ1-42 aggregation, each compound at the above concentration was diluted to 10 μM in 50 μL of 0.01 M sodium phosphate buffer solution. Then, 40 μL of 0.1 mg/ml Aβ1-42 was added thereto, followed by addition of 10 μL of 2 mM Thioflavin T. The fluorescence was then measured with a fluorescence spectrometer (RF-5300PC, SHIMADZU CORPORATION, Japan) at 37° C. and intervals of 5 minutes for 150 minutes. In the table above, “RFU” denotes relative fluorescence unit, and “increased RFU” indicates the amount of aggregated β-amyloid. “Increased RFU (% of Pos.Cont.)” indicates the percentage of aggregated β-amyloid compared to the positive control. “Novel substance 31” indicates quercetin 3-O-[3-O″-(E)-p-coumaroyl][β-D-glucopyranosyl-(1→3)-O-α-L-rhamnopyranosyl-(1→6)-O-β-D-glucopyranoside], and “novel substance 32” indicates quercetin 3-O-[3-O″-(E)-p-coumaroyl][α-L-rhamnopyranosyl-(1→6)-O-β-D-glucopyranoside].
# T1 sequence (P05067 672-713 limits assumed): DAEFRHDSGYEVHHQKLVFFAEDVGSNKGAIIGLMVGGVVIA
Increased RFU (% of Pos.Cont.) [%],decreased aggregation compared with the positive control [%],"Increased RFU (amount of aggregated β-amyloid) (Aβ1-42 0.1 mg/ml, 37° C., 150 minutes) [RFU]",SMILES
93.6,6.4,–,"O=S1(=O)OC(c2ccc(O)cc2)(c2ccc(O)cc2)c2ccccc21 [Phenol Red, phenol red, reference compound]"
78.6,21.4,11471,"O=c1c(O)c(-c2ccc(O)cc2O)oc2cc(O)cc(O)c12 [Morin, morin, reference compound]"
